Consider 24 molecules from US20240246980A1, “MODULATORS OF MAS-RELATED G-PROTEIN RECEPTOR D AND RELATED PRODUCTS AND METHODS” (Escient Pharmaceuticals, Inc., priority 2022, published 2024).

The term IC50 denotes the concentration that inhibits the measured activity by half.

For the experiment, the target named is human MRGPRD (Homo sapiens, UniProt Q8TDS7). Kind of experiment: MRGPRD antagonist activity, IP-One HTRF assay in CHO cells stably expressing human MRGPRD (versus 100 μM β-Alanine agonist). In kind it is cell-based. As to the method: Chinese Hamster Ovary (CHO) cells stably expressing human MRGPRD (Eurofins, San Diego CA) were plated in a 384-well plate at 20,000 cells per well in 12 μL of Optimem (Fisher Scientific 11-058-021). Plates were kept in the incubator at 37° C. overnight. Antagonists were solubilized at a concentration of 10 mM in DMSO, and the agonists were solubilized to stock concentrations of either 50 mM in H2O (β-Alanine) or 10 mM in DMSO (all others) and then diluted in assay buffer (final concentrations of 5.7 mM Tris-HCl, 43 mM NaCl, 50 mM LiCl, pH=8). The concentration of DMSO was normalized across the plate. Antagonists were added to the plate using a Tecan D300 Digital Dispenser at nanoliter/picoliter volumes and 2 μL of agonists in assay buffer were added to each well for a final assay volume of 14 μL. Plates were covered and incubated for 1 h at 37° C. and then for 1 h at room temperature. IP-1 standards and HTRF detection reagents were added according to an IP-One-Gq Kit purchased from Cisbio (part number 62IPAPEJ) and incubated in the dark for 1 h at room temperature. Assay plates were read on either a Molecular Devices SpectraMax iD5 plate reader or a BMG ClarioStar plate reader. The HTRF ratio was calculated form the raw data and graphed using GraphPad Prism to calculate IC50 values. Data are expressed as average IC50 values and average percent antagonism calculated as a percent of the maximum efficacy response. For these studies, the variability of the data was assessed by determining the standard error of mean (SEM).
The activity ranges are denoted as follows: “+++++” denotes antagonist activity <100 nM; “++++” denotes antagonist activity between 100 and 500 nM; “+++” denotes activity between 500 and 1000 nM; “++” denotes activity between 1000 and 3000 nM; and “+” denotes activity >3000 nM.
Background: Time-resolved FRET reads energy transfer from a long-lived donor to a nearby acceptor.

Molecules are shown by their SMILES.

Sequence of human MRGPRD (Q8TDS7 whole entry): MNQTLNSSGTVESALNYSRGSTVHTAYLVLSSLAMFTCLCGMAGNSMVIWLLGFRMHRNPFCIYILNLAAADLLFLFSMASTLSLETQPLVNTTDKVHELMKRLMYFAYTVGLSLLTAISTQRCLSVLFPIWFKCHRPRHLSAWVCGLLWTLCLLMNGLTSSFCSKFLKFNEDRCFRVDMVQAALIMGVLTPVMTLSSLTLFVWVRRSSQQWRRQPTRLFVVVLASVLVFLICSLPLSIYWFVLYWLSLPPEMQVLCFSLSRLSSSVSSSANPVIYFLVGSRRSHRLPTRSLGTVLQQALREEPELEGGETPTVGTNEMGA

Turning to `COc1cccc(-c2nc(C3CCCN(C(=O)Nc4ccc(C)c(C)c4)C3)n3ccccc23)c1` (stereo not drawn) [Compound 3-23], the IC50 lay in the range of 0.1 to 0.5 µM. Then `COc1cccc(-c2nc(C3CCCN(C(=O)Nc4cccc(N(C)C)c4)C3)n3ccccc23)c1` (stereo not drawn) [Compound 3-24], with 0.1 to 0.5 µM; and `COc1cccc(-c2nc(C3CCCN(C(=O)Nc4ccc(N(C)C)cc4)C3)n3ccccc23)c1` (stereo not drawn) [Compound 3-25, N-(4-(dimethylamino)phenyl)-3-(1-(3-methoxyphenyl)imidazo[1,5-a]pyridin-3-yl)piperidine-1-carboxamide], with below 0.1 µM; and `COc1cccc(-c2nc(C3CCCN(C(=O)Nc4cccc(OC)c4C)C3)n3ccccc23)c1` (stereo not drawn) [Compound 3-26], with 0.1 to 0.5 µM. The figure for `COc1cccc(-c2nc([C@@H]3CCCN(C(=O)Nc4ccccc4)C3)n3ccccc23)c1` [Compound 3-27] is below 0.1 µM.

As for `COc1cccc(-c2nc(C3CCCN(C(=O)Nc4ccccc4F)C3)n3ccccc23)c1` (stereo not drawn) [Compound 3-28], the IC50 was 0.1 to 0.5 µM. As for `COc1cccc(-c2nc([C@H]3CCCN(C(=O)Nc4ccccc4)C3)n3ccccc23)c1` [Compound 3-29], the IC50 is 1 to 3 µM. On to `COc1cccc(-c2nc(C3CCCN(C(=O)Nc4ccc(OC)c(OC)c4)C3)n3ccccc23)c1` (stereo not drawn) [Compound 4-1], for which the IC50 is 0.1 to 0.5 µM. As to `COc1cccc(-c2nc(C3CCCN(C(=O)Nc4cc(OC)c(OC)c(OC)c4)C3)n3ccccc23)c1` (stereo not drawn) [Compound 4-2, 3-(1-(3-methoxyphenyl)imidazo[1,5-a]pyridin-3-yl)-N-(3,4,5-trimethoxyphenyl)piperidine-1-carboxamide], the IC50 is below 0.1 µM. As to `COc1cccc(-c2nc(C3CCCN(C(=O)Nc4ccccc4N(C)C)C3)n3ccccc23)c1` (stereo not drawn) [Compound 4-3], the IC50 lay in the range of 0.5 to 1 µM.

For `COc1cccc(-c2nc(C3CCCN(C(=O)Nc4ccc(C#N)cc4)C3)n3ccccc23)c1` (stereo not drawn) [Compound 4-4], the half-inhibitory concentration (IC50) is 0.5 to 1 µM. Molecule `COc1cccc(-c2nc(C3CCCN(C(=O)N(C)c4ccccc4)C3)n3ccccc23)c1` (stereo not drawn) [Compound 5-1] returned an IC50 of 1 to 3 µM. The figure for `COc1cccc(-c2nc(C3CCCN(C(=O)N(C)c4ccc(F)cc4)C3)n3ccccc23)c1` (stereo not drawn) [Compound 5-2] is 1 to 3 µM; for `COc1cccc(-c2nc(C3CCCN(C(=O)Nc4ccc(C)cc4F)C3)n3ccccc23)c1` (stereo not drawn) [Compound 5-3] it is 0.5 to 1 µM; for `COc1cccc(-c2nc(C3CCCN(C(=O)Nc4ccc(C)cc4C)C3)n3ccccc23)c1` (stereo not drawn) [Compound 5-4] it is 0.1 to 0.5 µM. Consider `COc1cccc(-c2nc(C3CCCN(C(=O)Nc4ccc(C)cc4C)C3)n3ccccc23)c1` (stereo not drawn) [Compound 5-5, N-(2,4-dimethylphenyl)-3-(1-(3-methoxyphenyl)imidazo[1,5-a]pyridin-3-yl)piperidine-1-carboxamide], for which the half-maximal inhibitory concentration (IC50) was in the range of 0.1 to 0.5 µM.

`COc1cccc(-c2nn(C3CCCN(C(=O)Nc4ccc(N(C)C)cc4)C3)c3ccccc23)c1` (stereo not drawn) [Compound 5-6]: the IC50 is below 0.1 µM.

In turn, `COc1cccc(-c2nc([C@@H]3CCCN(C(=O)Nc4ccc(CO)cc4)C3)n3ccccc23)c1` [Compound 5-7] registered an IC50 below 0.1 µM. The molecule `COc1cccc(-c2nc(C3CCN(C(=O)Nc4cccc(N(C)C)c4)CC3)n3ccccc23)c1` [Compound 5-8] showed an IC50 of 1 to 3 µM.

As for `COc1cccc(-c2nc(C3CCN(C(=O)Nc4ccc(N(C)C)cc4)CC3)n3ccccc23)c1` [Compound 5-9], the IC50 is above 3 µM.

Consider `COc1cccc(-c2nc([C@@H]3CCCN(C(=O)Nc4ccc(F)cc4)C3)n3ccccc23)c1` [Compound 5-10], for which the IC50 lay in the range of 0.1 to 0.5 µM.

As to `COc1cccc(-c2nc([C@@H]3CCCN(C(=O)Nc4ccccc4OC)C3)n3ccccc23)c1` [Compound 5-11], the IC50 fell in the range of 0.1 to 0.5 µM. Then `COc1cccc(-c2nc([C@@H]3CCCN(C(=O)Nc4ccccc4F)C3)n3ccccc23)c1` [Compound 5-12], with below 0.1 µM; and `COc1cccc(-c2nc([C@@H]3CCCN(C(=O)Nc4ccccc4OC(F)(F)F)C3)n3ccccc23)c1` [Compound 5-13], with 0.5 to 1 µM.
